“And” between values parts separate entries of the source, which are not always exact repeats. Equal entries are not always repeated. “Also recorded” adds a separate entry of the source.
What was measured:
[1] = Second-order reaction kinetics with tetrazine DPTz (UV-Vis absorbance at 525 nm); format: physicochemical; conditions: for Second-order rate constant (k2): with DPTz, 37° C., λabs = 525 nm
Protocol: (§1) UV-VIS photospectrometic kinetic measurements were performed on a BioTek Synergy HT Microplate Reader (BioTek, USA) in a 96-well plate formate. In further detail, for analysis of reaction kinetics in DMSO and DMSO/H2O (9:1, v/v), stock solutions of benzonorbornadiene derivatives 1-3 (60 mM or 12.5 mM) and tetrazine (15 mM or 2.5 mM) in DMSO were prepared. Final solutions containing tetrazine (2 mM or 0.25 mM) and 1-3 (20 mM, 30 mM, 40 mM and 50 mM or 2.5 mM, 3.75 mM, 5 mM, 6.25 mM) were prepared in 96-well plates and thoroughly mixed at 37° C. for UV-Vis measurements. For analysis of reaction kinetics in DMSO/PBS (3:2, v/v), final solutions containing tetrazine (0.05 mM) and 1-2 (0.5 mM), tetrazine alone (0.05 mM) were prepared in 96-well plates and thoroughly mixed at 37° C. for UV-Vis measurements. The reactions were monitored at 525 nm, which is a local absorbance maximum of tetrazine. All kinetic experiments were run in triplicates. Pseudo-first order curve fitting was performed with Origin 8.0 software using the exponential formula: y=A1×e^kx+y0.

[2] = Second-order reaction kinetics with tetrazine PEG-Tz (UV-Vis absorbance at 525 nm); format: physicochemical; conditions: 37° C., λabs = 525 nm
Protocol: as §1

[3] = test system: A549 lung cancer cells; test: Cell proliferation / cytotoxicity assay (CellTiter-Glo); format: cell-based; conditions: compound alone
Protocol: Cell proliferation assays were performed on an Envision 2104 Multilabel Reader (PerkinElmer, USA). Specifically, A549 lung cancer cells (ATCC, USA) were maintained in a humidified CO2 (5%) incubator at 37° C. in DMEM (Thermo Fisher, USA) supplemented with 10% fetal bovine serum in the presence of 1% Penicillin-Streptomycin-Glutamine (Thermo Fisher, USA) and 0.2% Normocin (InvivoGen, USA). The cells were plated in 96-well TC treated plates (PerkinElmer, USA) at a 5000 cells/well density 24 h prior to the experiment. Prodrug 5, compound 2 (2 mM in DMSO) and PEG-Tz (40 mM in DMSO) were serially diluted in pre-warmed culture medium. Prodrug 5 and compound 2 are in a series of final concentrations ranging from 0.001 to 10 μM with 200 μM, 100 μM, 50 μM, 25 μM PEG-Tz before the experiment and added to the wells (100 μL final volume per well). Doxorubicin was used as the positive control with same series of concentrations ranging from 0.001 to 10 μM. […] After 72 h incubation at 37° C., cell proliferation was assessed by a CellTiter-Glo® viability assay. Lyophilized CellTiter Glo Substrate (Promega, USA) was dissolved in the CellTiter Glo Buffer to get CellTiter-Glo® Reagent, and from which 100 μL was added to each well. After 15 min incubation at 25° C., the medium was gently measured with Envision 2104 Multilabel Reader (PerkinElmer, USA) to get the luminescent based on quantitation of the ATP present, an indicator of metabolically active cells. The proliferation assay was performed in triplicate (n=3). EC50 values were derived from the normalized cell growth and corresponding sigmoidal curves were fitted and generated with Origin 8.0.

[4] = Stability in human serum (PBS:Serum 1:1), HPLC; format: in vitro ADME; conditions: 50 μM in PBS:Serum (1:1), 37° C., 5 up to 48 h, 2 up to 7 days
Protocol: Stability studies of prodrug 5 in PBS:Serum were performed as follows. Stock solutions of prodrug 5 (2.5 mM) in DMSO were prepared. Aliquots of 5 stock solution (20 μL), 0.01 M PBS (480 μL) and human serum (500 μL) (Sigma-Aldrich, USA) were combined to give final concentrations of 50 μM for the 5 in PBS: Serum (1:1, v/v). The sample was thoroughly mixed and incubated at 37° C. in the dark and subsequently a 50 μL aliquot of the sample was taken at indicated time points (5 min, 6 h, 24 h and 48 h) and quenched by 200 μL ice cold acetonitrile, followed by centrifugation at 13300 rpm for 5 min. The supernatant was injected and analyzed by HPLC at 480 nm.
Stability studies of compound 2 were performed as follows. Stock solutions of 2 (2.5 mM) in DMSO were prepared. Aliquots of 2 stock solution (20 μL), 0.01 M PBS (480 μL) and human serum (500 μL) (Sigma-Aldrich, USA) were combined to give final concentrations of 50 μM for the 2 in PBS: Serum (1:1, v/v). The sample was thoroughly mixed and incubated at 37° C. in the dark and subsequently a 50 μL aliquot of the sample was taken at indicated time points (5 min, 6 h, 24 h, 48 h, 72 h and 7 days) and quenched by 200 μL ice cold acetonitrile, followed by centrifugation at 13300 rpm for 5 min. The supernatant was injected and analyzed by HPLC at 317 nm.

Compound | Second-order rate constant (k2) ([1]; DMSO) | Second-order rate constant (k2) ([1]; 90% DMSO/H2O) | Second-order rate constant (k2) ([2]; 60% DMSO/PBS (3:2)) | Second-order rate constant (k2) ([2]; 90% DMSO/H2O) [M⁻¹ s⁻¹] | also measured
7-oxo-BNBD [compound 6, reference compound] | 0.176 M⁻¹ s⁻¹ and 0.176 ± 0.004 M⁻¹ s⁻¹ | – | – | – | –
O=C(Nc1ccc([N+](=O)[O-])cc1)OCC12C=CC(O1)c1ccccc12 (stereo not drawn) [compound 1] | 0.015 M⁻¹ s⁻¹ and 0.015 ± 0.008 M⁻¹ s⁻¹ | 0.028 M⁻¹ s⁻¹ and 0.028 ± 0.0003 M⁻¹ s⁻¹ | 0.190 M⁻¹ s⁻¹ and 0.190 ± 0.029 M⁻¹ s⁻¹ | 0.058 ± 0.0003 | Decrease of reaction rate with DPTz relative to 7-oxo-BNBD (6) ([1]; DMSO): ~12 fold
COc1cccc2c1C(=O)c1c(O)c3c(c(O)c1C2=O)C[C@@](O)(C(=O)CO)C[C@@H]3O[C@H]1C[C@H](N)[C@H](O)[C@H](C)O1 [Doxorubicin, reference compound] | – | – | – | – | EC50 ([3]; Homo sapiens, A549): 88 nM; EC50 ([3]; Homo sapiens, A549, 72 hour incubation at 37° C.): 88 ± 31 nM
CC(C)(C)OC(=O)N1C2C=CC1(COC(=O)Nc1ccc([N+](=O)[O-])cc1)c1ccccc12 (stereo not drawn) [compound 3, tert-butyl 1-((((4-nitrophenyl)carbamoyl)oxy)methyl)-1,4-dihydro-1,4-epiminonaphthalene-9-carboxylate] | 0.0044 M⁻¹ s⁻¹ and 0.0044 ± 0.00009 M⁻¹ s⁻¹ | 0.0084 M⁻¹ s⁻¹ and 0.0084 ± 0.0016 M⁻¹ s⁻¹ | – | – | –
CC(=O)N1C2C=CC1(COC(=O)Nc1ccc([N+](=O)[O-])cc1)c1ccccc12 (stereo not drawn) [compound 2] | 0.010 M⁻¹ s⁻¹ and 0.010 ± 0.0004 M⁻¹ s⁻¹ | 0.017 M⁻¹ s⁻¹ and 0.017 ± 0.002 M⁻¹ s⁻¹ | 0.135 M⁻¹ s⁻¹ and 0.135 ± 0.010 M⁻¹ s⁻¹ | 0.020 ± 0.0007 | Stability in human serum [4]: completely stable until the end of the analysis at one week; Unspecific payload release in human serum [4]: No free p-Nitroaniline or p-Nitroaniline-containing side products were observed; also recorded: no traces of pNA were formed; also recorded: No background liberation of reporter molecules was observed
COCCOCCOCCNC(=O)c1ccc(-c2nncnn2)cc1 [PEG-Tz, N-(2-(2-(2-methoxyethoxy)ethoxy)ethyl)-4-(1,2,4,5-tetrazin-3-yl) benzamide] | – | – | – | – | EC50 ([3]; 72 hour incubation at 37° C.): > 200000 nM; Cytotoxicity in A549 cells ([3]; tested concentration range (PEG-Tz 0.02 to 200 μM; 5 0.001 to 10 μM)): no obvious toxicity; also recorded: no cytotoxicity
